Like-named read-outs stand apart in the source and are kept apart here.
What was measured:
[1] = test system: rat striatum; details: transcriptomic analysis (Geva 2016); cited from earlier work
[2] = test system: patients with Huntington's disease
Excerpt: In the UHDRS, maximal dystonia was scored from 0 (absent) to 4 (marked/prolonged) on each of the following items: trunk, right upper extremity, left upper extremity, right lower extremity, and left lower extremity. Maximal dystonia is the sum of all scores.

[3] = test system: patients with Huntington's disease; details: 45 mg bid
[4] = test system: patients with DYT1 and other primary genetic forms of dystonia; details: 45 mg b.i.d., 90 mg b.i.d.; 26 weeks
Excerpt: The study population consists of those with DYT1 and other primary genetic forms of dystonia, as confirmed by genetic testing. The study's other inclusion criteria are patients with a BFMD score greater than 6, male or female patients, patients of any race or ethnicity, and patients with the ability to provide informed consent.
Burke-Fahn-Marsden Dystonia Rating Scale (BFMDRS) Rating Scale evaluates nine body parts (eyes, mouth, speech, swallowing, neck, trunk, right arm, right leg, left arm, and left leg) by rating the severity factor and provoking factors for each part on a 5 point scale of 0 (no dystonia) to 4 (indicating the presence of dystonia at rest). The dystonia scores of the eyes, mouth and neck are assigned a weighting factor of 0.5, while the other 6 parts are assigned a weighting factor of 1.0. The score of each part is obtained by multiplying the provoking factor by the severity factor and the weighting factor, and then summing the scores of each part. The maximum score possible is 120. A higher score indicates more severe dystonia. […]

[5] = test system: patients with Huntington's disease; details: after 26 weeks of treatment
Excerpt: The TFC scale of the UHDRS is a standardized scale used to assess 5 functional domains associated with disability shown below (occupation, finances, domestic chores (e.g. laundry, washing dishes), activities of daily living, and care level).

[6] = test system: human patients afflicted with dystonia; details: periodic (daily or twice daily) oral administration
[7] = test system: patients with Huntington's disease; details: for Δ to placebo, change from baseline in UHDRS TMS Gait and Balances: Week 52; for Δ to placebo, change from baseline in UHDRS TMS Gait and Balance: BL TFC≥7
Excerpt: • CIBIC-Plus global score as compared to baseline • Change from baseline in the PDS score • Change from baseline in UHDRS FA • CGIC as compared to baseline • Change from baseline in UHDRS TFC • Change from baseline in UHDRS IS Global/Functional Scales: • Change from baseline in HD QOL • Change from baseline in Walk-12 scale TMS Subscores: • Change from baseline in hand movement score (defined as the sum of UHDRS domains finger taps, pronate-supinate hands and luria [fist-hand-palm test]) • Change from baseline in Gait and balance score (defined as the sum of UHDRS domains gait, tandem walking and retropulsion pull test) • Change from baseline in UHDRS mMS (defined as the sum of UHDRS domains dysarthria, tongue protrusion, finger taps, pronate-supinate hands, luria, rigidity, bradykinesia, gait, tandem walking, retropulsion pull test) • Change from baseline in UHDRS Chorea • Change from baseline in UHDRS Dystonia • Responders, defined as patients with UHDRS TMS change from baseline≤0 Other Motor Assessments: • Change from baseline in Q Motor measurements including digitomotography (speeded index finger tapping), dysdiadochomotography (pronation/supination hand tapping), manumotography and choreomotography (grip force and chorea analysis) and pedomotography (speeded foot tapping) • Change from baseline in the TUG test Cognitive/Psychiatric Assessments: • Change from baseline in HD-CAB brief: SDMT, Emotion Recognition, Trail Making Test, HVLT-R, Paced Tapping at 3 Hz, OTS. • Change from baseline in PBA-s Safety Variables and Endpoints
The gait and balance score is defined as the sum of UHDRS domains gait, tandem walking and retropulsion pull test.

## CCCN1CCC(c2cccc(S(C)(=O)=O)c2)CC1 [pridopidine, 4-[3-(methylsulfonyl)phenyl]-1-propyl-piperidine]
[1]
  expression of the BDNF, dopamine receptor 1 (D1R), glucocorticoid receptor (GR) and Akt/PI3K pathways: activates expression
[2]; 45 mg bid, Week 26, ALL
  Δ to placebo, change from baseline in UHDRS TMS Dystonia: −0.06
[2]; 45 mg bid, Week 26, Stage 1 BL TFC 11-13
  Δ to placebo, change from baseline in UHDRS TMS Dystonia: −0.99
[2]; 45 mg bid, Week 52, Stage 1 BL TFC 11-13
  Δ to placebo, change from baseline in UHDRS TMS Dystonia: −1.65
[2]; 45 mg bid, Week 52, all pridopidine treated patients
  Δ to placebo, change from baseline in UHDRS TMS Dystonia: −0.39
[2]; 45 mg bid, week 26, BL TFC ≥9 and CAG Repeats <44 and BL TMS 1st 3 Qs
  Δ to placebo, change from baseline in UHDRS TMS Dystonia: −1.53
[2]; 45 mg bid, week 26, BL TFC≥9 AND CAG Repeats <44
  Δ to placebo, change from baseline in UHDRS TMS Dystonia: −1.54
[2]; 45 mg bid, week 26, CAG Repeats <44 AND BL TMS 1st 3 Qs
  Δ to placebo, change from baseline in UHDRS TMS Dystonia: −1.04
[2]; 67.5 mg bid, Week 26, ALL
  Δ to placebo, change from baseline in UHDRS TMS Dystonia: −0.34
[2]; 67.5 mg bid, Week 26, Stage 1 BL TFC 11-13
  Δ to placebo, change from baseline in UHDRS TMS Dystonia: −0.89
[2]; 67.5 mg bid, Week 52, Stage 1 BL TFC 11-13
  Δ to placebo, change from baseline in UHDRS TMS Dystonia: −0.1
[2]; 67.5 mg bid, Week 52, all pridopidine treated patients
  Δ to placebo, change from baseline in UHDRS TMS Dystonia: −0.35
[2]; 67.5 mg bid, week 26, BL TFC ≥9 and CAG Repeats <44 and BL TMS 1st 3 Qs
  Δ to placebo, change from baseline in UHDRS TMS Dystonia: −1.6
[2]; 67.5 mg bid, week 26, BL TFC≥9 AND CAG Repeats <44
  Δ to placebo, change from baseline in UHDRS TMS Dystonia: −1.58
[2]; 67.5 mg bid, week 26, CAG Repeats <44 AND BL TMS 1st 3 Qs
  Δ to placebo, change from baseline in UHDRS TMS Dystonia: −1.15
[2]; 90 mg bid, Week 26, ALL
  Δ to placebo, change from baseline in UHDRS TMS Dystonia: −0.33
[2]; 90 mg bid, Week 26, Stage 1 BL TFC 11-13
  Δ to placebo, change from baseline in UHDRS TMS Dystonia: −1.56
[2]; 90 mg bid, Week 52, Stage 1 BL TFC 11-13
  Δ to placebo, change from baseline in UHDRS TMS Dystonia: −1.46
[2]; 90 mg bid, Week 52, all pridopidine treated patients
  Δ to placebo, change from baseline in UHDRS TMS Dystonia: −0.27
[2]; 90 mg bid, week 26, BL TFC ≥9 and CAG Repeats <44 and BL TMS 1st 3 Qs
  Δ to placebo, change from baseline in UHDRS TMS Dystonia: −1.64
[2]; 90 mg bid, week 26, BL TFC≥9 AND CAG Repeats <44
  Δ to placebo, change from baseline in UHDRS TMS Dystonia: −1.72
[2]; 90 mg bid, week 26, CAG Repeats <44 AND BL TMS 1st 3 Qs
  Δ to placebo, change from baseline in UHDRS TMS Dystonia: −1
[2]; 112.5 mg bid, Week 26, ALL
  Δ to placebo, change from baseline in UHDRS TMS Dystonia: −0.29
[2]; 112.5 mg bid, Week 26, Stage 1 BL TFC 11-13
  Δ to placebo, change from baseline in UHDRS TMS Dystonia: −0.53
[2]; 112.5 mg bid, Week 52, Stage 1 BL TFC 11-13
  Δ to placebo, change from baseline in UHDRS TMS Dystonia: −0.46
[2]; 112.5 mg bid, Week 52, all pridopidine treated patients
  Δ to placebo, change from baseline in UHDRS TMS Dystonia: −0.24
[2]; 112.5 mg bid, week 26, BL TFC ≥9 and CAG Repeats <44 and BL TMS 1st 3 Qs
  Δ to placebo, change from baseline in UHDRS TMS Dystonia: −1.29
[2]; 112.5 mg bid, week 26, BL TFC≥9 AND CAG Repeats <44
  Δ to placebo, change from baseline in UHDRS TMS Dystonia: −1.4
[2]; 112.5 mg bid, week 26, CAG Repeats <44 AND BL TMS 1st 3 Qs
  Δ to placebo, change from baseline in UHDRS TMS Dystonia: −0.62
[2]; baseline total dystonia score≥4, Week 52, all treatment groups, greatest decreases for 45, 67.5 and 90 mg bid
  dystonia score, change from baseline: directional clinical improvement
[2]; full analysis set, Week 26 or Week 52, all active treatment groups
  dystonia score, change from baseline: no clinically meaningful changes from baseline
[3]; BL dystonia score ≥4, completed 52 weeks, FIG. 16a, placebo 60.0%
  Responders, UHDRS TMS dystonia (improved or no change): 77.8%
[3]; BL dystonia score ≥4, completed 52 weeks, FIG. 16b, placebo […]
  Responders, UHDRS TMS dystonia (improved, change≥1): 66.7%
[3]; BL dystonia score ≥4, completed 52 weeks, placebo […]
  Responders, UHDRS-Limb Dystonia item (improved, change≥1): 77.2%
[3]; placebo 66.7%
  Responders, chorea+dystonia items: 77.8%
[4]
  secondary outcomes (CGI, Patient Global Assessment, VAS pain, BFMDS, EQ-5D, SF-36 etc.): improve the secondary outcomes
  severity of dystonia (BFMDRS or UDRS), primary endpoint: improve the severity of dystonia
[5]
  Total Functional Capacity (TFC): trends favoring pridopidine
[6]
  dystonia in afflicted patients: effective to reduce dystonia
[7]; 45 mg bid, Stage 1 BL TFC 11-13
  Δ to placebo, change from baseline in UHDRS TMS Gait and Balances: −0.94
[7]; 45 mg bid, all pridopidine treated patients
  Δ to placebo, change from baseline in UHDRS TMS Gait and Balances: −0.09
[7]; 45 mg bid, week 26
  Δ to placebo, change from baseline in UHDRS TMS Gait and Balance: −0.48
[7]; 45 mg bid, week 52
  Δ to placebo, change from baseline in UHDRS TMS Gait and Balance: −0.41
[7]; 67.5 mg bid, Stage 1 BL TFC 11-13
  Δ to placebo, change from baseline in UHDRS TMS Gait and Balances: −0.53

Source: patent US12564582B2 (Prilenia Neurotherapeutics Ltd., priority 2016, dated 2026)
